Source: ChEMBL document CHEMBL1201862, “PubChem BioAssay data set” (2004)
Activity calls are given as the source filed them.

Legend:
[1] = toxicity to human hepatoma HepG2 cells – cell-based, cherry-picked samples, cytotoxicity control, dose response (AID 1159577); assay type: functional
[2] = viability loss in HEK293 kidney cells – cell-based, cherry-picks, set 5, cytotoxicity control, dose response (AID 1053117); assay type: functional
[3] = viability loss in HepG2 hepatoma cells – cell-based, cherry-picks, set 5, cytotoxicity control, dose response (AID 1053118); assay type: functional
[4] = viability loss in A549 lung cancer cells – cell-based, cherry-picks, […], cytotoxicity control, dose response (AID 1053119); assay type: functional
[5] = P. falciparum Dd2 growth inhibitors, dose response, SYBR Green, cherry-picked samples (AID 1159567); assay type: functional, cell-based
[6] = NIH3T3 cell viability loss – ATP luminescence, mouse fibroblasts, counter-screen, dose response (AID 2010); assay type: functional, cell-based;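 also: cells exposed to compound for about 90 hours before reading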
[7] = Trypanosoma cruzi growth suppression in host cells – NIH3T3 host cells, beta-gal luminescence, confirmation (AID 2044); assay type: functional, cell-based;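 also: intracellular parasites grown in NIH/3T3 mouse fibroblasts as host cells; luminescent beta-galactosidase reporter signal from transgenic T. cruzi replicating inside host cells; inhibitors lower the luminescence signal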
cells [8] = assay: cells
[9] = biological target: T1, Heat shock factor protein 1 (Mus musculus, UniProt P38532); assay: enhancement of HSF1-driven luciferase signal – cell-based, NIH3T3, luminescence, dose retest, confirmation (AID 435004); assay type: functional;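 also: stress induced by proteasome inhibitor MG132 added 30 min after compound; luciferase reporter driven by HSF1 response element in NIH3T3 cells; actives raise luminescence as potentiators of the MG132 stress response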
T1 sequence (P38532 whole entry): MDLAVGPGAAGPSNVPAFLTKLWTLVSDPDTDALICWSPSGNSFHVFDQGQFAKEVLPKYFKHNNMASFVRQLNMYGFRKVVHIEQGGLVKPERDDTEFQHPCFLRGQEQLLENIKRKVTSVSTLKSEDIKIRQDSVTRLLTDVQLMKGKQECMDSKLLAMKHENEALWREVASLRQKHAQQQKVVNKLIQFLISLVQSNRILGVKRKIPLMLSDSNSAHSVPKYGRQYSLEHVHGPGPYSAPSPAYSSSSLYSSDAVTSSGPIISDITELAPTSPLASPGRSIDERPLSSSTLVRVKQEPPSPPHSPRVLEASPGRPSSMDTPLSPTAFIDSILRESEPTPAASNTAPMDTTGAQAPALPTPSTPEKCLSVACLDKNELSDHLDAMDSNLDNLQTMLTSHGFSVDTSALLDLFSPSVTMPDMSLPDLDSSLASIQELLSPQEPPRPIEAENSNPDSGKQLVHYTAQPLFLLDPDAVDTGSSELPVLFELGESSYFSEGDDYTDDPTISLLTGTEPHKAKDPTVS

cells [10] = assay: cells; remark: listed apart in the source
[11] = biological target: T2, Oxysterols receptor LXR-beta (Homo sapiens, UniProt P55055); assay type: functional, cell-based
T2 sequence (P55055 whole entry): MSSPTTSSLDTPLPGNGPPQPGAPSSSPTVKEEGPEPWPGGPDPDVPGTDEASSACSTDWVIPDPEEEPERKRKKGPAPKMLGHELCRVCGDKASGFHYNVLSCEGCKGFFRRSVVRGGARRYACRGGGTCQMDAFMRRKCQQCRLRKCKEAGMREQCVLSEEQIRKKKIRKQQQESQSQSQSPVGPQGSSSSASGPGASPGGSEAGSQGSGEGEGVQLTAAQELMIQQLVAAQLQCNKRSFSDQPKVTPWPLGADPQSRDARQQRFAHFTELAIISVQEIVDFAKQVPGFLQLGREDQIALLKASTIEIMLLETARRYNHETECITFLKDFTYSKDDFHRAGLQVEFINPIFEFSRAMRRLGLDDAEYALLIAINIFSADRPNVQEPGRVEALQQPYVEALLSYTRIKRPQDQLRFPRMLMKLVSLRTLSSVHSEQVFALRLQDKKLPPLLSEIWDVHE

Estrogen receptor beta = Estrogen receptor beta (Homo sapiens, UniProt Q92731);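 also: recombinant ER-beta bound to coactivator SRC1 peptide in presence of estradiol agonist; inhibitors block coactivator peptide binding and lower the FRET signal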
Sequence of Estrogen receptor beta (Q92731 whole entry): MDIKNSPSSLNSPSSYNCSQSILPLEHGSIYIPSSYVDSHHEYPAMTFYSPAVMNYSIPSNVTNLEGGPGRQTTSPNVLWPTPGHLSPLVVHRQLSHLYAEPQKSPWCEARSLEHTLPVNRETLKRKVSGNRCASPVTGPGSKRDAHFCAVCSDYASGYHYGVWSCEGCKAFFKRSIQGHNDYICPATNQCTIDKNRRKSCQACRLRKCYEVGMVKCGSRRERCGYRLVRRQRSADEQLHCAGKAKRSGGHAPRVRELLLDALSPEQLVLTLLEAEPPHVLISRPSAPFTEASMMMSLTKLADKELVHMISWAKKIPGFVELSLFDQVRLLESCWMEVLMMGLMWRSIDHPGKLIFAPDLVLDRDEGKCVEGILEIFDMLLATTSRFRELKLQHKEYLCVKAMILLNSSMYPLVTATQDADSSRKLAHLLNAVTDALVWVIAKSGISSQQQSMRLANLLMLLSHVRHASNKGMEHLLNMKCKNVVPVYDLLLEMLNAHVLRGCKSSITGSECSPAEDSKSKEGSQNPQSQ

Ephrin type-A receptor 4 = Ephrin type-A receptor 4 (Mus musculus, UniProt Q03137); assay: EphA4 ligand-binding antagonists – biochemical, colorimetric, mouse EphA4, primary screen (AID 689); assay type: functional
Sequence of Ephrin type-A receptor 4 (Q03137 whole entry): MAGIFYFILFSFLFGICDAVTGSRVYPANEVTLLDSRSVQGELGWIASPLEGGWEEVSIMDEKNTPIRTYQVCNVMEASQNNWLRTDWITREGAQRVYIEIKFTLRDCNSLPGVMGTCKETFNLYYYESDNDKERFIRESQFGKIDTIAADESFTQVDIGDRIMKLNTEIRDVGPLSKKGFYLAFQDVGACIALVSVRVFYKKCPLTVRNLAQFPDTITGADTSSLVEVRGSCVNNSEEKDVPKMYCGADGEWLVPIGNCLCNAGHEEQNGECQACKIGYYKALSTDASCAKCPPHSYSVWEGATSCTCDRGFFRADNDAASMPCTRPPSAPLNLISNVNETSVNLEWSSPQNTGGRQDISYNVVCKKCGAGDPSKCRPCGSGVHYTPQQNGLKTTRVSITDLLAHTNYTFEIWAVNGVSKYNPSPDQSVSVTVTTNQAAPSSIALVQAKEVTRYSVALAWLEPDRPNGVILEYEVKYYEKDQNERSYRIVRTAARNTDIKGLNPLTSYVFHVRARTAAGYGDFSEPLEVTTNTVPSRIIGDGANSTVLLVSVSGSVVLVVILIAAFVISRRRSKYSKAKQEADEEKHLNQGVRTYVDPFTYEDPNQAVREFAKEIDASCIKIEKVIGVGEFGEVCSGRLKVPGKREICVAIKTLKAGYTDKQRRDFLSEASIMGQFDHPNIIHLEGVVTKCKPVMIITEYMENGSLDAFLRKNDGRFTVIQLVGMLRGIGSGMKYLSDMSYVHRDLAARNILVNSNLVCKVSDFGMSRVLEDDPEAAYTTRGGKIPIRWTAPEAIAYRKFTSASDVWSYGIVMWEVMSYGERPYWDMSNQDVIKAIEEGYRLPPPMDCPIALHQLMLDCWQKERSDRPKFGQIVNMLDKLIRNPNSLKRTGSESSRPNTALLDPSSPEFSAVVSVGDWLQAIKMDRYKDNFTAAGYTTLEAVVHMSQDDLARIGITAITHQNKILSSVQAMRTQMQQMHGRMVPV

[12] = biological target: T3, Probable nicotinate-nucleotide adenylyltransferase (Staphylococcus aureus (strain N315), UniProt P65502); assay type: functional, Staphylococcus aureus subsp. aureus N315; conditions: read-out: IC50_Mean;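 as to IC50 Mean: confirmatory dose-response retesting of NadD inhibitor hits first found in an ultra-high-throughput screen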
T3 sequence (P65502 whole entry): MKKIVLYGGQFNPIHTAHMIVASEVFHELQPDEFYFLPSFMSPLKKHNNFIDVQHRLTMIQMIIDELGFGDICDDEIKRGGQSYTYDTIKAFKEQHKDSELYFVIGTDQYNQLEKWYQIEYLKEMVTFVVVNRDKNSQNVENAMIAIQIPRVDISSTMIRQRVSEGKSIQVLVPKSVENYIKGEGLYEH

[13] = biological target: T3, Probable nicotinate-nucleotide adenylyltransferase; assay type: functional, Staphylococcus aureus subsp. aureus N315
cells [14] = assay type: functional, cell-based
[15] = biological target: T4, Calpain-2 catalytic subunit (Sus scrofa, UniProt P43367); assay: m-calpain protease blockers, concentration series – biochemical, fluorogenic peptide substrate, dose response (AID 1420); assay type: functional
T4 sequence (P43367 whole entry): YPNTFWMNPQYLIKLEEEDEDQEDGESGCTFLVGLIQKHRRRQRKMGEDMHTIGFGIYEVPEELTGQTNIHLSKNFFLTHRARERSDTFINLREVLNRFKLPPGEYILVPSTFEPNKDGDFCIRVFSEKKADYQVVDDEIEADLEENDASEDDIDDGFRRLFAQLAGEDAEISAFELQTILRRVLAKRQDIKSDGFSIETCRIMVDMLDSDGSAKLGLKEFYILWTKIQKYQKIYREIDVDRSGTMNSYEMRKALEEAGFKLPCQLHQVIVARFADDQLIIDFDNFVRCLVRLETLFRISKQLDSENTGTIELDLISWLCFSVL

[16] = biological target: T5, Nuclear receptor subfamily 0 group B member 1 (Homo sapiens, UniProt P51843); assay type: functional, cell-based;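 also: HEK293T cells transfected with SF-1 and DAX-1 plus StAR promoter luciferase reporter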
T5 sequence (P51843 whole entry): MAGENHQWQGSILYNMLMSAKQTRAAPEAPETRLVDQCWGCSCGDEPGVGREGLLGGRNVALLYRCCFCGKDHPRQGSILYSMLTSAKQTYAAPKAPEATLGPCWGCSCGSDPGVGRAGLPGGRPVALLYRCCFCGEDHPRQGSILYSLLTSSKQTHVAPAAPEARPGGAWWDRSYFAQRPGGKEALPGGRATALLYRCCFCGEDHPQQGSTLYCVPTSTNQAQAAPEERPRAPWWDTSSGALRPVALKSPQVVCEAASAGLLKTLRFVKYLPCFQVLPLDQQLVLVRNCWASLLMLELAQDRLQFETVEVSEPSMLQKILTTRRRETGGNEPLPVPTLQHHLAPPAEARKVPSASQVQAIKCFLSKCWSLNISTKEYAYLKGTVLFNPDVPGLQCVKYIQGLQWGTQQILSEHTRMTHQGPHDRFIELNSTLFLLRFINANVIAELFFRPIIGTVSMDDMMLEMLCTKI

[17] = biological target: T2, Oxysterols receptor LXR-beta; assay type: functional, cell-based; remark: listed apart in the source
[18] = viability loss in human Jurkat cells – cell-based, luminescence, cytotoxicity control for P. falciparum gametocyte viability project, dose response (AID 1117277); assay type: functional;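 also: potency reflects loss of cellular ATP meaning fewer viable cells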
[19] = viability inhibitors of stage V gametocytes – luminescence, dose response (AID 1117278); assay type: functional, cell-based;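 also: gametocytes exposed to compound for 24 hours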
INS1 = assay: INS-1E survival protection against cytokine death – cell-based, luminescence, retest, dose response (AID 449756); assay type: functional; conditions: Rattus norvegicus;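 also: cell death triggered by IL-1 beta plus TNF-alpha plus IFN-gamma mixture; protective hits raise ATP signal compared with cytokine alone wells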
[20] = biological target: Sphingosine 1-phosphate receptor 2 (Homo sapiens, UniProt O95136); assay: Dose Response Cell Based Assay for Antagonists of the S1P2 Receptor. [Related pubchem assays: 856, 736 ]; assay type: functional
Sequence of Sphingosine 1-phosphate receptor 2 (O95136 whole entry): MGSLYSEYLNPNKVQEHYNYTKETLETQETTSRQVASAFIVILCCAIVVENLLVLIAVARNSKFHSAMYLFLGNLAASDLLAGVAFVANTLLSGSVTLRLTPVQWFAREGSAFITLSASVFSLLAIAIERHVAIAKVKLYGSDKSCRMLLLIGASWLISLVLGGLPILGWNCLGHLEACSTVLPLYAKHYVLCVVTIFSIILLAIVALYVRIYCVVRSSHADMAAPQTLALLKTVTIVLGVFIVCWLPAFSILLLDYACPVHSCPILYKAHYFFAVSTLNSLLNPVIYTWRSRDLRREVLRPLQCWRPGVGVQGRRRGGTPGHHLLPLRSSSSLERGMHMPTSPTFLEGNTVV

[21] = HIV-1 Vif–A3G interaction blockers – biochemical, TR-FRET, GST-Vif 1-94, biotin-A3G peptide, dose response retest, primary screen (AID 1117319); assay type: functional;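 also: TR-FRET signal of purified GST-Vif binding a biotinylated A3G peptide; inhibitors lower the FRET signal by blocking Vif and A3G binding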
[22] = biological target: T2, Oxysterols receptor LXR-beta; assay: LXR agonists, Gal4 luciferase reporter, dose response, counter-screen for ssDAF-12 agonist project, cell-based, luminescence, HEK293, S. stercoralis campaign (AID 720737); assay type: functional; conditions: read-out: IC50 (the source's name)
[23] = Luminescence-based cell-based high throughput dose response assay to identify activators of the DAF-12 from the parasite S. stercoralis (ssDAF-12).; assay type: functional

With `CO[C@@H]1CN(C)C(=O)c2ccc(NC(=O)c3ccc(-c4ccccc4)cc3)cc2OC[C@H](C)NC[C@@H]1C` the AC50 [1] was 8.05 µM (active), the AC50 [2] was 18.1 µM (active) and the AC50 [3] was 12.2 µM (active). The AC50 [4] was 16.2 µM (active) and the AC50 [5] was 4.99 µM (active).

For `CCc1ccc(CN2CCCC(CCC(=O)N3CCN(c4ccccn4)CC3)C2)o1` (configuration not stated), the EC50 [6] was > 60 µM (not active), the EC50 [7] was < 0.1 µM (active) and the EC50 (cells [8]) was 0.021 µM (active).

In the case of `CC(C)c1ccc(-n2cnn(-c3ncccc3[N+](=O)[O-])c2=O)cc1`, the EC50 [9] is reported as > 260 µM (inactive), the EC50 (cells [10]) is reported as > 67.5 µM (inactive) and the EC50 [11] is reported as > 67.5 µM (inactive).

With `C=CCN1C(=O)NC(=O)/C(=C(/CC)NCc2cccnc2)C1=O` the IC50 (Estrogen receptor beta) was > 50 µM (not active).

With `CC(C)CC(C(=O)Nc1oc(-c2ccco2)c(-c2ccco2)c1C#N)N1C(=O)c2ccccc2C1=O` (configuration not stated) the IC50 (Ephrin type-A receptor 4) was > 100 µM (not active), the IC50 [12] was 53.1 µM (active) and the IC50 [13] was 16.4 µM (active).

In the case of `Oc1ccccc1-c1cc(-c2ccc3c(c2)OCCO3)[nH]n1`, the IC50 (cells [14]) is reported as > 67.6 µM (inactive), the IC50 [15] is reported as > 50 µM (not active) and the IC50 [16] is reported as 17.6 µM (inactive). For the same compound, the EC50 [17] was > 67.6 µM (inactive).

For `COc1ccc(Cl)cc1C(=O)CSc1nnnn1C1CCCCC1`, the IC50 [18] was 10.9 µM (inactive) and the IC50 [19] was > 109 µM (inactive).

In the case of `COc1ccc(OC)c(NC(=O)CSc2ncnc3c2cnn3-c2ccccc2Cl)c1`, the AC50 (INS1) is reported as 2.15 µM (active) and the IC50 [20] is reported as 3.67 µM (active).

For `O=C(Cn1nc(-c2ccc(Cl)cc2)ccc1=O)NCc1ccc2c(c1)OCO2`, the IC50 [21] was > 100 µM (active).

With `O=c1[nH][nH]c2cc(=O)n(-c3cccc(C(F)(F)F)c3)nc12` the EC50 [22] was > 67.5 µM (inactive), the EC50 [9] was > 260 µM (inactive) and the IC50 [23] was > 67.5 µM (inactive).
